ChEMBL document CHEMBL1127878, “Substituted lactam biphenyltetrazoles as angiotensin II mediated antihypertensives” (Bioorg Med Chem Lett, 1994)

Legend:
Rattus norvegicus [1] = test: Tested for total onset time(BP) after peroral administration of 30 mg/kg of dose in spontaneously hypertensive rat; type: functional; conditions: route oral
Rattus norvegicus [2] = test: Tested for total duration time(BP) after peroral administration of 30 mg/kg of dose in high renin rat; type: functional; conditions: route oral
Rattus norvegicus [3] = test: Tested for total onset time(BP) after peroral administration of 30 mg/kg of dose in high renin rat; type: functional; conditions: route oral
Rattus norvegicus [4] = test: Tested for percent of maximal blood pressure drop in high renin rat after peroral administration of 30 mg/kg of dose; type: functional; conditions: route oral
[5] = biological target: T1, Type-1 angiotensin II receptor (Oryctolagus cuniculus, UniProt P34976); test: In vitro binding affinity against Angiotensin II receptor in rabbit aorta rings; type: tissue-based; conditions: read-out: pA2 (converted)
T1 sequence (P34976 whole entry): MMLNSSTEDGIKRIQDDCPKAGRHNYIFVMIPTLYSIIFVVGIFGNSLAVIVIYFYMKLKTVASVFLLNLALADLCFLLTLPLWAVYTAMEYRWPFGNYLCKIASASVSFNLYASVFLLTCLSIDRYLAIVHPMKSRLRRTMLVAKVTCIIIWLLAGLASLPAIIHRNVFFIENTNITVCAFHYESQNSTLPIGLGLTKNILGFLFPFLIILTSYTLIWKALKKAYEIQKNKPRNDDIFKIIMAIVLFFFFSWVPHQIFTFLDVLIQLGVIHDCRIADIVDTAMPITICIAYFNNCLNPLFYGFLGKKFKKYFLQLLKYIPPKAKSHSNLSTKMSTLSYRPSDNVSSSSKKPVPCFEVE

Rattus norvegicus [6] = test: Tested for total duration time(BP) after peroral administration of 30 mg/kg of dose in spontaneously hypertensive rat; type: functional; conditions: route oral
Rattus norvegicus [7] = test: Dose (iv) required for graded reduction in mean arterial blood pressure in spontaneously hypertensive rat (also, 10 mg/kg); type: functional
Rattus norvegicus [8] = test: Tested for percent of maximal blood pressure drop after peroral administration of 30 mg/kg in spontaneously hypertensive rat; type: functional; conditions: route oral

SMILES | Onset (Rattus norvegicus [1]; 30 mg/kg) [h] | Duration (Rattus norvegicus [2]) [h] | Onset (Rattus norvegicus [3]) [h] | Max drop (Rattus norvegicus [4]; 30 mg/kg) [%] | Kb [5] [nM] | Duration (Rattus norvegicus [6]; 30 mg/kg) [h] | Dose (Rattus norvegicus [7]) [mg/kg] | Max drop (Rattus norvegicus [8]; 30 mg/kg) [%] | Max drop (Rattus norvegicus [4]) [%] | Duration (Rattus norvegicus [2]; 30 mg/kg) [h] | Onset (Rattus norvegicus [3]; 30 mg/kg) [h] | Onset (Rattus norvegicus [1]) [h] | Duration (Rattus norvegicus [6]) [h] | Max drop (Rattus norvegicus [8]) [%]
CCOC(=O)/C=C1\CC(C)(CC)CC(=O)N1Cc1ccc(-c2ccccc2-c2nn[nH]n2)cc1 (stereo in doubt; 9) | 0.25 | <24 | 0.25 | 100 | 1 | 24 | 3 | 100 |  |  |  |  |  | 
CCOC(=O)/C=C1\CC2(CCCC2)CC(=O)N1Cc1ccc(-c2ccccc2-c2nn[nH]n2)cc1 |  | 21 | 2.5 |  | 12.6 |  |  |  | 46 |  |  |  |  | 
CCOC(=O)/C=C1\C2C3CCC(C3)C2C(=O)N1Cc1ccc(-c2ccccc2-c2nn[nH]n2)cc1 (configuration not stated) |  | 17 | 1 |  | 1 |  |  |  | 26 |  |  |  |  | 
CCOC(=O)/C=C1\CC(C)(C)CC(=O)N1Cc1ccc(-c2ccccc2-c2nn[nH]n2)cc1 |  | 5 | 2 |  | 39.8 |  |  |  | 17 |  |  |  |  | 
CCOC(=O)/C=C1\CC(C)(CC)CC(=O)N1Cc1ccc(-c2ccccc2-c2nn[nH]n2)cc1 (stereo in doubt; 13) | 0.5 |  |  | 58 | 2.51 | 16 |  | 58 |  |  |  |  |  | 
CCOC(=O)/C=C1\C2C3C=CC(CC3)C2C(=O)N1Cc1ccc(-c2ccccc2-c2nn[nH]n2)cc1 (stereo in doubt; 5) |  |  |  | 29 | 6.31 |  |  |  |  | 17 | 1.75 |  |  | 
CCOC(=O)/C=C1\CC(C)(C(C)C)CC(=O)N1Cc1ccc(-c2ccccc2-c2nn[nH]n2)cc1 (configuration not stated) |  |  |  |  | 15.8 |  |  |  | 70 |  |  | 1.25 | 5 | 70
CCOC(=O)/C=C1\CC2(CCCCC2)CC(=O)N1Cc1ccc(-c2ccccc2-c2nn[nH]n2)cc1 |  |  |  |  | 5.01 |  |  |  | 100 |  |  | 0.25 | 8 | 100
CCOC(=O)/C=C1\CC2(CCCC2)C(=O)N1Cc1ccc(-c2ccccc2-c2nn[nH]n2)cc1 |  | 3 | 2 |  | 3.16 |  |  |  | 20 |  |  |  |  | 
CCOC(=O)/C=C1\CC(CC)(CC)CC(=O)N1Cc1ccc(-c2ccccc2-c2nn[nH]n2)cc1 (stereo in doubt; 16) | 0.25 |  |  | 100 | 7.94 | 24 |  | 100 |  |  |  |  |  | 
CCOC(=O)/C=C1\C2C3C=CC(CC3)C2C(=O)N1Cc1ccc(-c2ccccc2-c2nn[nH]n2)cc1 (stereo in doubt; 7) |  |  |  | 43 | 10 |  |  |  |  | 10 | 0.25 | 1 | 13 | 86
CCCCc1nc(Cl)c(CO)n1Cc1ccc(-c2ccccc2-c2nnn[nH]2)cc1 [LOSARTAN] |  | 24 | 2 |  |  |  |  |  | 100 |  |  | 2 | 24 | 100
CCOC(=O)/C=C1\C2C3C=CC(CCC3)C2C(=O)N1Cc1ccc(-c2ccccc2-c2nn[nH]n2)cc1 (configuration not stated) |  |  |  |  | 20 |  |  |  | 96 |  |  | 0.25 | 24 | 96
CCCC1(CC)CC(=O)N(Cc2ccc(-c3ccccc3-c3nn[nH]n3)cc2)/C(=C/C(=O)OCC)C1 (configuration not stated) |  |  |  |  | 12.6 |  |  |  | 18 |  |  | 3 | 6 | 18
CCOC(=O)/C=C1\CC2(CCCCC2)C(=O)N1Cc1ccc(-c2ccccc2-c2nn[nH]n2)cc1 |  | 17 | 1 |  | 12.6 |  |  |  | 26 |  |  |  |  | 
CCCCC1(CC)CC(=O)N(Cc2ccc(-c3ccccc3-c3nn[nH]n3)cc2)/C(=C/C(=O)OCC)C1 (configuration not stated) |  |  |  |  | 100 |  |  |  | 55 |  |  | 0.25 | 8 | 55
CCOC(=O)/C=C1\CC2(CCCCCC2)C(=O)N1Cc1ccc(-c2ccccc2-c2nn[nH]n2)cc1 |  | 23 | 0.75 |  | 3.98 |  |  |  | 31 |  |  | 1.5 | 16 | 80
CCCCC1(C)CC(=O)N(Cc2ccc(-c3ccccc3-c3nn[nH]n3)cc2)/C(=C/C(=O)OCC)C1 (configuration not stated) |  |  |  |  | 31.6 |  |  |  | 98 |  |  | 0.5 | 24 | 98
CCOC(=O)/C=C1\CC(CC)(CC)CC(=O)N1Cc1ccc(-c2ccccc2-c2nn[nH]n2)cc1 (stereo in doubt; 11) | 0.75 |  |  | 35 | 3.98 | 15 |  | 35 |  |  |  |  |  | 
